One test has as its target T1, A1AdoR (Homo sapiens, UniProt P30542).
T1 construct: purchased PerkinElmer ES-010-M400UA
T1 sequence (P30542 1-326): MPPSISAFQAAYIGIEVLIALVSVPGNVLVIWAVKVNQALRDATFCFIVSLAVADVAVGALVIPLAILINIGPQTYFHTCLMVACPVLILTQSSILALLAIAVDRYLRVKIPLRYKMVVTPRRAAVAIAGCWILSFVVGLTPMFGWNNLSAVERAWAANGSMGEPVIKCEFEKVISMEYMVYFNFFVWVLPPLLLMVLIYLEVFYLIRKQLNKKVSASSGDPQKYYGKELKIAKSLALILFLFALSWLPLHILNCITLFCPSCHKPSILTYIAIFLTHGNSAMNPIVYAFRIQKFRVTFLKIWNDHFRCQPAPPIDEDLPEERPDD
In words: Adenosine receptor binding assay, A1 ([3H]-DPCPX). Conditions: ratio A1 vs A2A binding. The procedure:
(§1) Membranes prepared from CHO-K1 cells stably expressing Human AiAdoR (ES-010-M400UA), HEK-293 cells stably expressing human A2A AdoR (RBHA2AM400UA), HEK-293 cells stably expressing human A2B AdoR (ES-013-M400UA) and CHO-K1 cells stably expressing Human A3 AdoR (ES-012-M400UA) were purchased from PerkinElmer (Waltham, Mass., USA) and stored at −80° C. until use. Binding assays are performed using the radioligands. The final concentrations are as follows: [3H]-DPCPX (PerkinElmer, NET974001MC) at 1 nM for A1AdoR; [^3H]-CGS-21680 (PerkinElmer, NET1021250UC) at 6 nM for A2AAdoR, [3H]-DPCPX (PerkinElmer, NET974001MC) at 8 nM for A2BAdoR; [^3H]-HEMADO (ARC, Cat: ART1456) at 1 nM for A3AdoR. Testing compounds are diluted with DMSO to make 8-point 4-fold serial dilution. Nonspecific binding (Low control: LC) and total binding (High control: HC) are determined in the presence or absence of saturated cold ligand. Specific binding is calculated by subtracting nonspecific binding from total binding. All assays are performed in a final volume of 200 μl containing 1 μl of the test compound in DMSO, 100 μl of membrane preparation, and 99 μl of the radioligand in assay buffer (A1AdoR: 25 mM HEPES pH 7.4, 5 mM MgCl2, 1 mM CaCl2), 100 mM NaCl; A2AAdoR: 50 mM Tris HCl pH 7.4, 10 mM MgCl2, 1 mM EDTA; A2BAdoR: 50 mM HEPES pH 7.0, 5 mM MgCl2, 1 mM EDTA; A3AdoR: 25 HEPES pH 7.4, 10 mM MgCl2, 1 mM CaCl2), 0.5% BSA). The incubation is performed at room temperature with shaking at 300 rpm for 1 hour for A1AdoR, A2BAdoR and A3AdoR and 2 hours for A2AAdoR. After the incubation, the assay mixture is filtered through 96 GF/C filter plates (Perkin Elmer #6005174) using Perkin Elmer Filtermate Harvester, and then washed four times with ice-cold washing buffer (A1AdoR: 25 mM HEPES pH 7.4, 5 mM MgCl2, 1 mM CaCl2), 100 mM NaCl; A2AAdoR: 50 mM Tris HCl pH 7.4, 154 mM NaCl; A2BAdoR: 50 mM HEPES pH 6.5, 5 mM MgCl2, 1 mM EDTA, 0.2% BSA; A3AdoR: 50 mM Tris HCl pH 7.4). The filters are dried for 1 hour at 50° C. and [^3H] trapped on filter counted for radioactivity in Perkin Elmer Microscint 20 cocktail (#6013329) using Perkin Elmer MicroBeta2 Reader. The results are expressed as a percent inhibition of the control radioligand specific binding calculated using the following equation: % Inhibition=(1−(Assay well-Average_LC)/(Average_HC−Average_LC))×100%. Data are analyzed and IC50 is calculated using GraphPad Prism 5 and the model “log(inhibitor) vs. response—Variable slope”. The binding affinity of the compounds is determined by using the Cheng and Prusoff equation Ki=IC50/(1+[radioligand]/Kd).

A further test deals with T2, human A2A AdoR (Homo sapiens, UniProt P29274).
T2 construct: purchased PerkinElmer RBHA2AM400UA
T2 sequence (P29274 whole entry): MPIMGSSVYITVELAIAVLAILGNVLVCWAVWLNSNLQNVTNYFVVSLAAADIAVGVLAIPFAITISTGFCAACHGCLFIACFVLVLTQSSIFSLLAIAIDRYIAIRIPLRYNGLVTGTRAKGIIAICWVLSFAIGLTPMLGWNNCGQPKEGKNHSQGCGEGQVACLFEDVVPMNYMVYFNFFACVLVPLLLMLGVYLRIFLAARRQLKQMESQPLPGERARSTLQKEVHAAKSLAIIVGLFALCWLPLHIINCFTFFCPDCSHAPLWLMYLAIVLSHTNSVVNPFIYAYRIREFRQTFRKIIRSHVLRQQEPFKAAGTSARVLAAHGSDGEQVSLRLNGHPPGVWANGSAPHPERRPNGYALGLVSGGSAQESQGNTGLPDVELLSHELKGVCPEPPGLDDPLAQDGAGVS
In words: Adenosine receptor binding assay, A2A ([3H]-CGS-21680). The note with it: membranes of HEK-293 cells expressing human A2A AdoR; read-out: hA2A IC50. As to the method: as §1

Bounds are passed on as bounds.

The text below walks through data of US20230024108A1, “ADENOSINE A2A RECEPTOR ANTAGONISTS” (Teon Therapeutics, Inc., priority 2019, published 2023).

By IC50 is commonly meant the midpoint of a concentration-inhibition curve.

With `CNC(=O)c1c(C)c2c(nc(N)n3nc(-c4ccccn4)nc23)n1CCN1CCCN(c2cc(-c3ncco3)ccc2F)CC1` [5-amino-7-(2-(4-(2-fluoro-5-(oxazol-2-yl)phenyl)-1,4-diazepan-1-yl)ethyl)-N,9-dimethyl-2-(pyridin-2-yl)-7H-pyrrolo[3,2-e][1,2,4]triazolo[1,5-c]pyrimidine-8-carboxamide], on A1AdoR, the “A1/A2A Selectivity” value was “b (greater than 100 but less than or equal to 1000)”. Moreover, the IC50 at human A2A AdoR was not above 20 nM.
The matching figures for `Cc1c(C(N)=O)n(CCN2CCN(c3ccc(C#N)cc3F)CC2)c2nc(N)n3nc(-c4ccccn4)nc3c12` [5-amino-7-(2-(4-(4-cyano-2-fluorophenyl)piperazin-1-yl)ethyl)-9-methyl-2-(pyridin-2-yl)-7H-pyrrolo[3,2-e][1,2,4]triazolo[1,5-c]pyrimidine-8-carboxamide]: “b (greater than 100 but less than or equal to 1000)” and not above 20 nM.
The like results for `Cc1c(C(=O)O)n(CCN2CCN(c3ccc(C#N)cc3F)CC2)c2nc(N)n3nc(-c4ccccn4)nc3c12` [5-amino-7-(2-(4-(4-cyano-2-fluorophenyl)piperazin-1-yl)ethyl)-9-methyl-2-(pyridin-2-yl)-7H-pyrrolo[3,2-e][1,2,4]triazolo[1,5-c]pyrimidine-8-carboxylic acid] were, in that order, “b (greater than 100 but less than or equal to 1000)” and not above 20 nM.
In the case of `Cc1cc(N2CCN(CCn3c(C(N)=O)c(C)c4c3nc(N)n3nc(-c5ccccn5)nc43)CC2)c(F)cn1` [5-amino-7-(2-(4-(5-fluoro-2-methylpyridin-4-yl)piperazin-1-yl)ethyl)-9-methyl-2-(pyridin-2-yl)-7H-pyrrolo[3,2-e][1,2,4]triazolo[1,5-c]pyrimidine-8-carboxamide], the “A1/A2A Selectivity” value on A1AdoR is reported as “c (greater than 0 but less than or equal to 100)”. Also, the IC50 at human A2A AdoR was not above 20 nM.
The like results for `Cc1noc2cc(F)c(N3CCN(CCn4c(C(N)=O)c(C)c5c4nc(N)n4nc(-c6ccccn6)nc54)CC3)cc12` [5-amino-7-(2-(4-(6-fluoro-3-methylbenzo[d]isoxazol-5-yl)piperazin-1-yl)ethyl)-9-methyl-2-(pyridin-2-yl)-7H-pyrrolo[3,2-e][1,2,4]triazolo[1,5-c]pyrimidine-8-carboxamide] were, in that order, “a (greater than 1000)” and not above 20 nM.
The like results for `NC(=O)c1c(Cl)c2c(nc(N)n3nc(-c4ccccn4)nc23)n1CCN1CCN(c2ccncc2)CC1` [5-amino-9-chloro-2-(pyridin-2-yl)-7-(2-(4-(pyridin-4-yl)piperazin-1-yl)ethyl)-7H-pyrrolo[3,2-e][1,2,4]triazolo[1,5-c]pyrimidine-8-carboxamide] were, in that order, “c (greater than 0 but less than or equal to 100)” and not above 20 nM.
The matching figures for `Nc1nc2c(c(Cl)c(C(=O)O)n2CCN2CCN(c3ccncc3)CC2)c2nc(-c3ccccn3)nn12` [5-amino-9-chloro-2-(pyridin-2-yl)-7-(2-(4-(pyridin-4-yl)piperazin-1-yl)ethyl)-7H-pyrrolo[3,2-e][1,2,4]triazolo[1,5-c]pyrimidine-8-carboxylic acid]: “b (greater than 100 but less than or equal to 1000)” and 20 to 100 nM.
Regarding `NC(=O)c1c(Cl)c2c(nc(N)n3nc(-c4ccccn4)nc23)n1CCN1CCN(c2ncccn2)CC1` [5-amino-9-chloro-2-(pyridin-2-yl)-7-(2-(4-(pyrimidin-2-yl)piperazin-1-yl)ethyl)-7H-pyrrolo[3,2-e][1,2,4]triazolo[1,5-c]pyrimidine-8-carboxamide], the “A1/A2A Selectivity” value at A1AdoR is on record as “c (greater than 0 but less than or equal to 100)”. The IC50 on human A2A AdoR was not above 20 nM.
On to `Nc1nc2c(c(Cl)c(C(=O)O)n2CCN2CCN(c3ncccn3)CC2)c2nc(-c3ccccn3)nn12` [5-amino-9-chloro-2-(pyridin-2-yl)-7-(2-(4-(pyrimidin-2-yl)piperazin-1-yl)ethyl)-7H-pyrrolo[3,2-e][1,2,4]triazolo[1,5-c]pyrimidine-8-carboxylic acid], for which, on A1AdoR, the “A1/A2A Selectivity” value is recorded as “c (greater than 0 but less than or equal to 100)”. The IC50 on human A2A AdoR fell in the range of 20 to 100 nM.
The matching figures for `Cc1cnc2c(c1)CN(CCn1c(C(N)=O)c(Cl)c3c1nc(N)n1nc(-c4ccccn4)nc31)CC2` [5-amino-9-chloro-7-(2-(3-methyl-7,8-dihydro-1,6-naphthyridin-6(5H)-yl)ethyl)-2-(pyridin-2-yl)-7H-pyrrolo[3,2-e][1,2,4]triazolo[1,5-c]pyrimidine-8-carboxamide]: “c (greater than 0 but less than or equal to 100)” and not above 20 nM.
Take `Nc1nc2c(c(Cl)c(C(=O)O)n2CCN2CCN(c3ccc(F)cc3F)CC2)c2nc(-c3ccccn3)nn12` [5-amino-9-chloro-7-(2-(4-(2,4-difluorophenyl)piperazin-1-yl)ethyl)-2-(pyridin-2-yl)-7H-pyrrolo[3,2-e][1,2,4]triazolo[1,5-c]pyrimidine-8-carboxylic acid]: on A1AdoR, the “A1/A2A Selectivity” value was “b (greater than 100 but less than or equal to 1000)”. Moreover, the IC50 on human A2A AdoR was not above 20 nM.
Consider `NC(=O)c1c(Cl)c2c(nc(N)n3nc(-c4ccccn4)nc23)n1CCN1CCN(c2cc(-c3ncco3)ccc2F)CC1` [5-amino-9-chloro-7-(2-(4-(2-fluoro-5-(oxazol-2-yl)phenyl)piperazin-1-yl)ethyl)-2-(pyridin-2-yl)-7H-pyrrolo[3,2-e][1,2,4]triazolo[1,5-c]pyrimidine-8-carboxamide], for which, at A1AdoR, the “A1/A2A Selectivity” value is reported as “a (greater than 1000)”. Besides, the IC50 on human A2A AdoR is not above 20 nM.
`Nc1nc2c(c(Cl)c(C(=O)O)n2CCN2CCN(c3cc(-c4ncco4)ccc3F)CC2)c2nc(-c3ccccn3)nn12` [5-amino-9-chloro-7-(2-(4-(2-fluoro-5-(oxazol-2-yl)phenyl)piperazin-1-yl)ethyl)-2-(pyridin-2-yl)-7H-pyrrolo[3,2-e][1,2,4]triazolo[1,5-c]pyrimidine-8-carboxylic acid]: the “A1/A2A Selectivity” value on A1AdoR is “b (greater than 100 but less than or equal to 1000)”. The IC50 on human A2A AdoR is not above 20 nM.
The matching figures for `N#Cc1ccc(N2CCN(CCn3c(C(N)=O)c(Cl)c4c3nc(N)n3nc(-c5ccccn5)nc43)CC2)c(F)c1` [5-amino-9-chloro-7-(2-(4-(4-cyano-2-fluorophenyl)piperazin-1-yl)ethyl)-2-(pyridin-2-yl)-7H-pyrrolo[3,2-e][1,2,4]triazolo[1,5-c]pyrimidine-8-carboxamide]: “a (greater than 1000)” and not above 20 nM.
The like results for `N#Cc1ccc(N2CCN(CCn3c(C(=O)O)c(Cl)c4c3nc(N)n3nc(-c5ccccn5)nc43)CC2)c(F)c1` [5-amino-9-chloro-7-(2-(4-(4-cyano-2-fluorophenyl)piperazin-1-yl)ethyl)-2-(pyridin-2-yl)-7H-pyrrolo[3,2-e][1,2,4]triazolo[1,5-c]pyrimidine-8-carboxylic acid] were, in that order, “b (greater than 100 but less than or equal to 1000)” and not above 20 nM.
